Reference: patent publication US20110112184A1, “COMPOUNDS WITH GLYCIDIC STRUCTURE ACTIVE IN THE THERAPY OF SYSTEMIC AND LOCAL INFLAMMATION” (priority 2008, published 2011)

Columns and labels:
HT29 cells = assay: LPS-induced IL-8 production by HT29 intestinal epithelial cells (ELISA); assay type: cell-based, human; conditions: compounds 50 mg/L to 5 μg/L for 18 h, then LPS (Salmonella enterica abortus equi) 1 μg/ml 6 h
Method: FIG. 2A. LPS-induced IL-8 production by HT29 cells in the absence or presence of the indicated concentrations of compound (c) 4, 5, 6, 7, 4′, 14.
(§1) The effect of the compounds on the release of IL-8 or KC was tested upon stimulation of intestinal epithelial cells (IEC) with LPS from Salmonella enterica abortus equi. The human IEC line HT29 was used for these experiments. Cells were cultured for 18 h in medium alone or in medium additioned with different concentrations of compounds 4, 5, 6, 7, 4′ and 14 (from 50 mg/L to 5 μg/L). Then, cells were stimulated for 6 h with LPS (1 μg/ml). […] Similar experiments were performed on a human pneumocyte type II cell line (A549) using compound 4 and LPS from Pseudomonas aeruginosa.

A549 human pneumocytes = assay: LPS-induced IL-8 production by A549 human pneumocytes; assay type: cell-based; conditions: LPS from Pseudomonas aeruginosa 100 μg/ml, compound 4 5 μg/L
Method: FIG. 2B. LPS (100 μg/ml)-induced IL-8 production by A549 human pneumocytes in the absence or presence of compound (Comp) 4 (5 μg/L).
as §1

DSS-treated mice = assay: Chronic Crohn-like disease induced by 4 cycles of DSS 2% in mice; assay type: in vivo; conditions: chronic model
Excerpt: FIG. 6. Colon length in untreated mice or mice treated with DSS+comp 4. Untr=Untreated; DSS=Mice treated with DSS alone; DSS comp 4=Mice treated with DSS and comp 4;=Mice treated comp 4 alone.
FIG. 7. TNF-α content in the protein extract of the colon of untreated mice or mice treated with DSS+comp 4. Untr=Protein extract from colon of untreated mice; DSS=Protein extract from colon of mice treated with DSS alone; DSS comp 4=Protein extract from colon of mice treated with DSS+comp 4;=Protein extract from colon of mice treated with comp 4 alone.
Chronic Crohn-like disease was induced in mice by administration of DSS 2% for 4 cycles, with each cycle consisting in exposition to DSS 2% for 7 days, followed by 14 days of regular water. In mice that were administered also compound 4, last exposition of DSS was followed by p.o. administration of compound 4 at 25 μg/kg, 4 times/week for 3 weeks.
One hallmark of the chronic Crohn's disease model is the shortening of the colon.
Another parameter that was measured in this setting was the TNF-α content in the protein extract of the colon of mice. DSS 2% alone led to a dramatic increase of the TNF-α levels in the protein extract, while co-treatment with compound 4 led to normalization of these levels.

[1] = test system: ovalbumin-treated C57B1/6 mice; assay: Ovalbumin mouse model of asthma; assay type: in vivo
Excerpt: FIG. 8. Serum levels of IL-4, IL-5 and IL-10 in untreated mice or mice treated with ovalbumin+comp 4. Untr=Untreated mice; comp 4=Mice treated with comp 4 alone; OVA=Mice treated with ovalbumin alone; comp 4+OVA=Mice treated with comp 4 and ovalbumin.
FIG. 9. BALF levels of IL-4 and IL-5 in untreated mice or mice treated with ovalbumin+compound 4. Untr=Untreated mice; comp 4=Mice treated with comp 4 alone; OVA=Mice treated with ovalbumin alone; comp 4+OVA=Mice treated with comp 4 and ovalbumin.
Compound 4 was tested in a mouse model of asthma where glucose had already been shown therapeutic efficacy. For this purpose, 10 male C57B1/6 mice were immunized intraperitoneally with 100 μg of ovalbumin (grade V) suspended in 500 μg Al(OH)3. Another group of 10 animals was treated the same way and, in addition, also with compound 4 (25 μg/kg) administered orally. One week after the first immunization, the same treatments were repeated. Two weeks after the first immunization, the first group of animals was challenged for 25 min with an aerosol of 5% (wt/vol) ovalbumin every day, for 5 consecutive days, while the other group received aerosolized ovalbumin plus compound 4 (25 μg/kg).
A hallmark of inflammatory damage to the lung is the development of high-permeability edema, characterized by high protein content in the edema fluid. Indeed, in the lungs of ovalbumin-exposed mice the protein concentration in the BALF was markedly high (0.729 mg/ml), witnessing an important damage to the lungs of these animals. On the other hand, the protein concentration in the BALF of ovalbumin+4-treated animals was similar to that of untreated animals (0.394 mg/ml).
Eventually, also the cytokine levels in the sera and BALFs of ovalbumin- or ovalbumin+compound 4-treated animals were measured. The levels of the cytokines IL-5 and IL-4, which are pivotal in the pathogenesis of asthmatic disease, were elevated in both sera and BALF from ovalbumin-treated mice, but normal in ovalbumin+4-treated animals.

Caco-2 enterocytes = assay: Doxorubicin-induced injury of Caco-2 enterocytes (ROS in culture medium); assay type: cell-based; conditions: Caco-2 monolayer, 3 μM doxorubicin + compound 4
Method: FIG. 10. Measurement of ROS in the cell culture medium of untreated enterocytes or enterocytes treated with doxorubicin+compound 4. Ctrl=Untreated (control) cells; Doxo=Cells treated with doxorubicin alone; Doxo comp 4=Cells treated with doxorubicin and compound 4.
Compound 4 has shown protective efficacy also in an in vitro model of chemotherapy-induced injury of enterocytes. In this model, a monolayer of Caco-2 enterocytes was treated with 3 μM doxorubicin alone or doxorubicin and 4.

[2] = test system: mice treated with doxorubicin; assay: Acute doxorubicin-induced enterocyte injury in mice; assay type: in vivo; conditions: doxorubicin 27 mg/kg i.p. + compound 4 25 μg/kg orally; 72 h
Method: FIG. 11. Serum levels of KC in untreated mice or mice submitted to acute treatment with doxorubicin or chronic treatment with doxorubicin and 5-fluorouracil. Untr=Untreated; Doxo 27 mg=Mice submitted to acute treatment with doxorubicin; Doxo 27 mg comp 4=Mice submitted to acute treatment with doxorubicin and concomitant p.o. administration of comp 4; Doxo cron=Mice submitted to chronic treatment with doxorubicin and 5-fluoruracil; Doxo cron comp 4=Mice submitted to chronic treatment with doxorubicin and 5-fluoruracil and concomitant p.o. administration of compound 4.
FIG. 12. Histology of the epithelium of the small intestine in mice after acute treatment with doxorubicin (DOXO) or acute treatment with doxorubicin and concomitant administration of compound 4 (comp 4+DOXO).
For the first model, doxorubicin was administered to mice by intraperitoneal injection (27 mg/kg). Some of the mice were administered at the same time compound 4 (25 μg/kg orally). Recovery of the blood for the determination of circulating KC levels and subsequent sacrifice of the animals were performed at 72 h after treatment.

CN(C)c1cccc2c(S(=O)(=O)NCC[C@H]3O[C@H](CO)[C@@H](O)[C@H](O)[C@H]3O)cccc12 [Compound 4, 5-(Dimethylamino)-N-[2′-(α-D-glucopyranosyl)ethyl]-1-naphthalenesulphonamide]
production of IL-8 induced by LPS (HT29 cells): significantly inhibited | LPS-induced IL-8 production (A549 human pneumocytes): significantly inhibited | Intestinal transmembrane resistance (DSS-treated mice; 4 cycles DSS 2% + compound 4 25 μg/kg p.o. 4 times/week for 3 weeks): 47 Ω × cm^2 | TNF-α content in the protein extract of the colon (DSS-treated mice; DSS 2% + compound 4): normalization | mean length of the colon (DSS-treated mice; DSS 2% + compound 4): 11.55 cm | Protection against ovalbumin inflammation ([1]; oral administration of compound 4 during aerosol ovalbumin challenge (data not shown)): protects the ovalbumin inflammation analogously to the aerosol challenge | IL-4 levels in BALF ([1]; ovalbumin + compound 4): normal | IL-4 levels in sera ([1]; ovalbumin + compound 4): normal | IL-5 levels in BALF ([1]; ovalbumin + compound 4): normal | IL-5 levels in sera ([1]; ovalbumin + compound 4): normal | IL-10 levels in sera ([1]; ovalbumin + compound 4): greatly increased | protein concentration in the BALF ([1]; ovalbumin + compound 4 (25 μg/kg)): 0.394 mg/mL | eosinophils in BALF ([1]; ovalbumin + compound 4 (25 μg/kg; oral at immunization, aerosol at challenge)): 127 cells/ml | reactive oxygen species (ROS) in the cell culture medium (Caco-2 enterocytes): complete inhibition | Histology of the epithelium of the small intestine [2]: normal morphology | circulating KC levels [2]: strongly reduced
